Test results published in US5622962A, “5α-reductase inhibitors” (priority 1995, dated 1997).
Read-outs that look alike come from different tables or passages of the source.

Legend:
[1] = molecular target: T1, Type I 5α-Reductase from Human Scalp (Homo sapiens, UniProt P18405); assay: Human Type I 5α-reductase assay (conversion of [3H]-testosterone to 5α-reduced metabolites); format: biochemical
T1 construct: Scalp punch biopsies from graft recipient sites were obtained from human hair transplant procedures; from tissue; host or cells: human scalp punch biopsies (hair transplant graft recipient sites), homogenate, 100,000×g pellet
T1 sequence (P18405 1-259): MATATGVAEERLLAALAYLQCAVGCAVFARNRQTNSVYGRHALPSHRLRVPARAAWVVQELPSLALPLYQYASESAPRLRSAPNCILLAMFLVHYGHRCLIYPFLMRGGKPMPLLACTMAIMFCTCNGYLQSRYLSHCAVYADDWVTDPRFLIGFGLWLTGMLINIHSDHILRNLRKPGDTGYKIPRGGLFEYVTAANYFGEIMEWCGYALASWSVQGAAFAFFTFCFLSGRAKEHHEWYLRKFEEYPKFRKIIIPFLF

[2] = molecular target: T2, Type II 5α-Reductase from Human Prostate (Homo sapiens, UniProt P31213); assay: Human Type II 5α-reductase assay (conversion of [3H]-testosterone to 5α-reduced metabolites); format: biochemical
T2 construct: The same procedure as above was used for preparations using tissue from prostate surgery; from tissue; host or cells: human prostate tissue from surgery, homogenate, 100,000×g pellet
T2 sequence (P31213 1-254): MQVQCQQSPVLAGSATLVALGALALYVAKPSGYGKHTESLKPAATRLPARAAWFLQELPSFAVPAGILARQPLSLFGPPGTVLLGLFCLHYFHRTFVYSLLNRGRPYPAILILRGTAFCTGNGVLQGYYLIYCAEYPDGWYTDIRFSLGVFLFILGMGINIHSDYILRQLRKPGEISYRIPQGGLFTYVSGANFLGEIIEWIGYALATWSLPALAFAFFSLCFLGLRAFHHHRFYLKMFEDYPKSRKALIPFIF

[3] = pH 7.5, 0.3 μM, 50 nM [3H]-testosterone, pH 7.5, 25°, 180 min, compared to control reaction mixtures, read-out: percent inhibition of Type I AR
[4] = pH 5.5, 0.3 μM, sodium acetate pH 5.5, 25°, 30 min, compared to control reaction mixtures, read-out: percent inhibition of Type II AR

| SMILES | inhibition at 0.3 µM [1, 3] [%] | inhibition at 0.3 µM [2, 4] [%] | further results |
| --- | --- | --- | --- |
| CN1C(=O)CC[C@]2(C)c3ccc(NC(=O)c4cccc(N)c4)cc3CC[C@@H]12 [Example 270, (4aR)-(10bR)-4,10b-dimethyl-8-(3-aminobenzoylamino)-1,2,3,4,4a,5,6,10b-octahydrobenzo[f]quinolin-3-one] | 18 | 13 | – |
| CN1C(=O)CC[C@]2(C)c3ccc(-c4c5ccccc5cc5ccccc45)cc3CC[C@@H]12 [Example 61, (+)-(4aR)-(10bR)-4-methyl-8-(9-anthracenyl)-10b-methyl-1,2,3,4,4a,5,6,10b-octahydrobenzo[f]quinolin-3-one] | 53 | 36 | – |
| CN1C(=O)CC[C@]2(C)c3ccc(-c4ccc5c(c4)C(=O)C(=O)N5)cc3CC[C@@H]12 [Example 223, (+)-(4aR)-(10bR)-4-methyl-8-(2,3-dioxo-5-indolinyl)-10b-methyl-1,2,3,4,4a,5,6,10b-octahydrobenzo[f]quinolin-3-one] | 36 | 24 | – |
| CN1C(=O)CC[C@]2(C)c3ccc(-c4ccc5c(ccn5C(=O)OC(C)(C)C)c4)cc3CC[C@@H]12 [Example 250, (+)-(4aR)-(10bR)-4-methyl-8-(1-[t-butoxycarbonyl]-5-indolyl)-10b-methyl-1,2,3,4,4a,5,6,10b-octahydrobenzo[f]quinolin-3-one] | 83 | 1 | – |
| CN1C(=O)CC[C@]2(C)c3ccc(-c4ccc5ccccc5n4)cc3CC[C@@H]12 [Example 247, (+)-(4aR)-(10bR)-4-methyl-8-(2-quinolinyl)-10b-methyl-1,2,3,4,4a,5,6,10b-octahydrobenzo[f]quinolin-3-one] | 60 | 32 | – |
| CN1C(=O)CC[C@]2(C)c3ccc(Sc4nc(-c5ccccc5)cc5ccccc45)cc3CC[C@@H]12 [Example 177, (+)-(4aR)-(10bR)-4-methyl-8-(3-phenyl-1-isoquinolinylthio)-10b-methyl-1,2,3,4,4a,5,6,10b-octahydrobenzo[f]quinolin-3-one] | 58 | 15 | – |
| CN(C)CCN1C(=O)c2cccc3c(-c4ccc5c(c4)CC[C@H]4N(C)C(=O)CC[C@]54C)ccc(c23)C1=O [Example 224, (+)-(4aR)-(10bR)-4-methyl-8-(2-(2-dimethylaminoethyl)-1H-benzo<de>isoquinolin-6-yl-1,3-(2H)dione)-10b-methyl-1,2,3,4,4a,5,6,10b-octahydrobenzo[f]quinolin-3-one] | 71 | 20 | – |
| CN1C(=O)CC[C@]2(C)c3ccc(-c4cc(F)cc(C(F)(F)F)c4)cc3CC[C@@H]12 [Example 216, (+)-(4aR)-(10bR)-4-methyl-8-(3-fluoro-5-trifluoromethylphenyl)-10b-methyl-1,2,3,4,4a,5,6,10b-octahydrobenzo[f]-quinolin-3-one] | 78 | 24 | – |
| CN1C(=O)CC[C@]2(C)c3ccc(-c4ccc5c6c(cccc46)C(=O)N(C4CCN(Cc6ccccc6)CC4)C5=O)cc3CC[C@@H]12 [Example 246, (+)-(4aR)-(10bR)-4-methyl-8-[2-(4-[N-benzyl]piperidinyl)-1H-benzo<de>isoquinolin-6-yl-1,3-(2H)dione]-10b-methyl-1,2,3,4,4a,5,6,10b-octahydrobenzo[f]quinolin-3-one] | 92 | 45 | – |
| CN1C(=O)CC[C@]2(C)c3ccc(-c4ccc(F)cc4C(F)(F)F)cc3CC[C@@H]12 [Example 31, (+)-(4aR)-(10bR)-4-methyl-8-(2-trifluoromethyl-4-fluorophenyl)-10b-methyl-1,2,3,4,4a,5,6,10b-octahydrobenzo[f]-quinolin-3-one] | – | – | inhibition at 0.3 µM ([1]; pH 7.5, read-out: percent inhibition of Type I AR): 84%; inhibition at 0.3 µM ([2]; pH 5.5, read-out: percent inhibition of Type II AR): 22% |

Now from value to compound, other results behind:

| inhibition at 0.3 µM [1, 3] [%] | inhibition at 0.3 µM [2, 4] [%] | SMILES | further results |
| --- | --- | --- | --- |
| 59 | 30 | CN1C(=O)CC[C@]2(C)c3ccc(Sc4nsc5ccccc45)cc3CC[C@@H]12 [Example 180, (+)-(4aR)-(10bR)-4-methyl-8-(3-[1,2-benzisothiazolyl]thio)-10b-methyl-1,2,3,4,4a,5,6,10b-octahydrobenzo[f]quinolin-3-one] | – |
| 88 | 46 | CN1C(=O)CC[C@]2(C)c3ccc(-c4ccc(Cl)c(Cl)c4)cc3CC[C@@H]12 [Example 77, (+)-(4aR)-(10bR)-4-methyl-8-(3,4-dichlorophenyl)-10b-methyl-1,2,3,4,4a,5,6,10b-octahydrobenzo[f]quinolin-3-one] | percent inhibition of Type II AR ([2]; 0.3 μM, sodium acetate pH 5.5, 25°, 30 min, compared to control reaction mixtures): 33% |
| 90 | 45 | CC(C)c1cccc2sc(-c3ccc4c(c3)CC[C@H]3N(C)C(=O)CC[C@]43C)nc12 [Example 264, (+)-(4aR)-(10bR)-4-methyl-8-(2-[4-isopropyl]benzothiazolyl)-10b-methyl-1,2,3,4,4a,5,6,10b-octahydrobenzo[f]quinolin-3-one] | – |
| 95 | 32 | CN1C(=O)CC[C@]2(C)c3ccc(-c4ccc(Cl)cc4)cc3CC[C@@H]12 [Example 50, (+)-(4aR)-(10bR)-4-methyl-8-(4-chlorophenyl)-10b-methyl-1,2,3,4,4a,5,6,10b-octahydrobenzo[f]quinolin-3-one] | percent inhibition of Type I AR ([1]; 0.3 μM, 50 nM [3H]-testosterone, pH 7.5, 25°, 180 min, compared to control reaction mixtures): 94% |
| 56 | 47 | CN1C(=O)CC[C@]2(C)c3ccc(-c4nc5cc(Cl)c(Cl)cc5s4)cc3CC[C@@H]12 [Example 263, (+)-(4aR)-(10bR)-4-methyl-8-(2-[5,6-dichloro]benzothiazolyl)-10b-methyl-1,2,3,4,4a,5,6,10b-octahydrobenzo[f]quinolin-3-one] | – |
| 79 | 87 | CN1C(=O)CC[C@]2(C)c3ccc(Sc4nc5c(F)cccc5s4)cc3CC[C@@H]12 [Example 162, (+)-(4aR)-(10bR)-4-methyl-8-(4-fluoro-2-benzothiazolylthio)-10b-methyl-1,2,3,4,4a,5,6,10b-octahydrobenzo[f]quinolin-3-one] | – |
| 71 | 51 | COc1ccc2nc(Sc3ccc4c(c3)CC[C@H]3N(C)C(=O)CC[C@]43C)sc2c1 [Example 161, (+)-(4aR)-(10bR)-4-methyl-8-(6-methoxy-2-benzothiazolylthio)-10b-methyl-1,2,3,4,4a,5,6,10b-octahydrobenzo[f]quinolin-3-one] | – |
| 97 | 11 | CN1C(=O)CC[C@]2(C)c3ccc(-c4cc(F)ccc4F)cc3CC[C@@H]12 [Example 229, (+)-(4aR)-(10bR)-4-methyl-8-(2,5-difluorophenyl)-10b-methyl-1,2,3,4,4a,5,6,10b-octahydrobenzo[f]quinolin-3-one] | – |
| 49 | 71 | CN1C(=O)CC[C@]2(C)c3ccc(Sc4cnc5ccccc5n4)cc3CC[C@@H]12 [Example 153, (+)-(4aR)-(10bR)-4-methyl-8-(2-quinoxalinylthio)-10b-methyl-1,2,3,4,4a,5,6,10b-octahydrobenzo[f]quinolin-3-one] | – |
| 65 | 24 | CN1C(=O)CC[C@]2(C)c3ccc(-c4ccc(O)c(C=O)c4)cc3CC[C@@H]12 [Example 58, (+)-(4aR)-(10bR)-4-methyl-8-(3-formyl-4-hydroxyphenyl)-10b-methyl-1,2,3,4,4a,5,6,10b-octahydrobenzo[f]quinolin-3-one] | – |
| 90 | 35 | Cc1ccccc1-c1ccc2c(c1)CC[C@H]1N(C)C(=O)CC[C@]21C [Example 40, (+)-(4aR)-(10bR)-4-methyl-8-(2-methylphenyl)-10b-methyl-1,2,3,4,4a,5,6,10b-octahydrobenzo[f]quinolin-3-one] | – |
| 100 | 32 | CN1C(=O)CC[C@]2(C)c3ccc(SCc4ccccc4)cc3CC[C@@H]12 [Example 136, (4aR)-(10bR)-8-benzylthio-4,10b-dimethyl-1,2,3,4,4a,5,6, 10b-octahydrobenzo[f]quinolin-3-one] | – |
| 93 | 94 | CCc1cccc2sc(Sc3ccc4c(c3)CC[C@H]3N(C)C(=O)CC[C@]43C)nc12 [Example 187, (+)-(4aR)-(10bR)-4-methyl-8-(4-ethyl-2-benzothiazolylthio)-10b-methyl-1,2,3,4,4a,5,6,10b-octahydrobenzo[f]quinolin-3-one] | – |
| 47 | 10 | CN1C(=O)CC[C@]2(C)c3ccc(Sc4cnccn4)cc3CC[C@@H]12 [Example 152, (+)-(4aR)-(10bR)-4-methyl-8-(2-pyrazinylthio)-10b-methyl-1,2,3,4,4a,5,6,10b-octahydrobenzo[f]quinolin-3-one] | – |
